Results reported in US12590057B2, “Crystalline complexes” (Theracryf PLC, priority 2020, dated 2026).

Legend:
Format in all cases: physicochemical
[1] = Typical water content of the crystalline forms
Procedure: The water content of a sample can be determined by any suitable means as will be apparent to one of skill in the art. In one embodiment, the water content is determined by Karl-Fischer titration. In one embodiment, the water content is determined by thermogravimetric analysis (TGA). In one embodiment, the water content is determined by gravimetric vapour sorption (GVS). After formation of the crystalline complex according to the invention, the water content may be as low as 1-3% w/w. However, after exposure of the complex to ambient conditions (25° C., 40% RH) the material typically equilibrates (e.g. over a period of 3-7 days) to a water content of up to 5-7% w/w. It has been found, however, that Form 3, once equilibrated to 5-7% w/w water, maintains physical form at 60% RH making it unexpectedly stable over the 0% and 60% humidity range.

[2] = Variable humidity XRPD (VH-XRPD) at 25° C.; conditions: 25° C.
From the text: Non-ambient conditions: XRPD diffractograms were collected on a PANalytical Empyrean diffractometer using Cu Kα radiation (45 kV, 40 mA) in reflection geometry. The instrument is fitted with an Anton Paar CHC plus^+ stage fitted with graphite/Kapton windows and equipped with air cooling coupled with a proUmid MHG32 Modular Humidity Generator or a low vacuum pump system using an Edwards RV3 pump. A programmable divergence slit (in automatic mode), with a 10 mm fixed incident beam mask, Ni filter and 0.04 rad Soller slits were used on the incident beam. A PIXcel^3D detector, placed on the diffracted beam, was fitted with a programmable anti-scatter slit (in automatic mode) and 0.04 rad Soller slits. The software used for data collection was X'Pert Data Collector and the data analysed and presented using Diffrac Plus EVA or Highscore Plus. For variable humidity (VH-XRPD) experiments the samples were prepared and analysed in an Anton Paar chromed low-profile sample holder with silicon wafer insert. The measurement parameters are as per the standard screening data collection method (detailed above). For all variable humidity XRPD experiments, a pattern was recorded every hour. […] The Form 1 sample was loaded into the VH chamber, which was set to 40% RH and 25° C. and then the RH was decreased in 10% decrements to 10% RH followed by increasing the RH in 10% increments to 90% RH, while maintaining the temperature at 25° C. […] The sample then quickly transitioned from Form 1 at 80% RH to Form 2 at 90% RH. A variable humidity (VH) XRPD experiment was performed to examine how Form 3 exists under different RH conditions. […] The sample was stable as Form 2 for 8 hours at 80% RH. At 90% RH Form 2 existed for 2 hours before the sample deliquesced in the humidity chamber.

[3] = KF water content of stability samples
Procedure: The water content of each sample was measured on a Metrohm 874 Oven Sample Processor at 150° C. with 851 Titrano Coulometer using Hydranal Coulomat AG oven reagent and nitrogen purge. Weighed solid samples were introduced into a sealed sample vial. Approximately 10 mg of sample was used per titration and duplicate determinations were made. […] Data collection and analysis were performed using Tiamo software.
The water content of samples of Form 1 (batch ref. LS19-0004-3-8002), Form 3 prepared by minimally-agitated drying ([…]; batch ref. 491-PAL-18) and Form 3 prepared by continuously-agitated filter drying (Example 5B trial 5; batch ref. 00173-005) was analysed by KF at the start of the stability study (initial) and after 2, 4 and 8 weeks storage in 60 ml Duma® bottles fitted with 45 mm Duma® caps (without desiccant) at 25° C./60% RH—see Table 16;
(§1) In a separate study, samples of Form 3 (Example 5.3; batch ref. 491-PAL-18) having an initial water content by KF of 2.3% w/w were tested for water content at various time points after storage double bagged in a HDPE bottle under various conditions as shown in Table 17.

[4] = Preliminary stability study, related substances by HPLC
Procedure: Analysis of samples of sulforaphane:alpha-cyclodextrin complexes as prepared herein were carried out by HPLC according to the following method: • Column—Phenomenex Gemini C18, 5 μm, 110 Å, 250×4.6 mm; • Mobile Phase A: Water (+0.1% TFA); • Mobile Phase B: Acetonitrile (+0.1% TFA); • Flow: 1.5 mL/min; • Injection Volume: 10 μL; • Column Temperature: 25° C.; • Run Time: 40 minutes; • Sample preparation—Accurately weighed and transferred about 320 mg±30 mg of the sample to a 25-mL volumetric flask, added about 15 mL of diluent (70% water, 30% acetonitrile, 0.1% TFA) and mixed until dissolved. Diluted to volume with diluent and mixed. Transferred 3-4 mL to a syringe and filtered using a 0.45 PTFE filter, discarding the first 1-2 ml, and filtered into an autosampler vial and sealed with PTFE lined cap (prepared in duplicate); • HPLC Gradient according to Table 12
Sulforaphane and certain related impurity peaks are summarised in Table 13, Characterisation of the impurities was carried out by LC-MS and ^1H-NMR. Relative Retention Times (RRT) are based on the HPLC method described above.
Samples of Form 1 (batch ref. LS19-0004-S-8002), Form 3 prepared by minimally-agitated drying (Example 5.3; batch ref. 491-PAL-18) and Form 3 prepared by continuously-agitated filter drying (Example 5B—trial 5; batch ref. 00173-005) were stored at 5° C. (Table 14) and at 25° C./60% RH (Table 15) for 8 weeks in 60 ml Duma® bottles fitted with 45 mm Duma® caps and samples were analysed by HPLC according to the above method.

[5] = XRPD physical form after storage; conditions: double bagged in HDPE bottle
Procedure: XRPD diffractograms were collected on a PANalytical Empyrean diffractometer using Cu Kα radiation (45 kV, 40 mA) in transmission geometry. A 0.5° sat, 4 mm mask and 0.04 rad Soller slits with a focusing mirror were used on the incident beam. A PIXcel^3D detector, placed on the diffracted beam, was fitted with a receiving slit and 0.04 rad Soller slits. The software used for data collection was X'Pert Data Collector using X'Pert Operator Interface. The data were analysed and presented using Diffrac Plus EVA or HighScore Plus.
After removal from the vacuum oven (day 0), Example 3 was reanalysed by XRPD in reflection mode on days 7, 9 and 29.
as §1

[6] = 2 weeks, Duma bottles without desiccant, 25° C./60% RH
[7] = 4 weeks, Duma bottles without desiccant, 25° C./60% RH
[8] = 8 weeks, Duma bottles without desiccant, 25° C./60% RH
[9] = Initial, Duma bottles without desiccant, 25° C./60% RH study
[10] = 25° C./60% RH stability, Initial

## C[S+]([O-])CCCCN=C=S.OCC1OC2OC3C(CO)OC(OC4C(CO)OC(OC5C(CO)OC(OC6C(CO)OC(OC7C(CO)OC(OC1C(O)C2O)C(O)C7O)C(O)C6O)C(O)C5O)C(O)C4O)C(O)C3O (centres unmarked) [Form 2]
[1]
  Typical water content: 13-20 % w/w
[2]
  Stability at 25° C. (RH range in which the form is stable): Above 80% RH

## C[S+]([O-])CCCCN=C=S.OC[C@H]1O[C@@H]2O[C@H]3[C@H](O)[C@@H](O)[C@@H](O[C@H]4[C@H](O)[C@@H](O)[C@@H](O[C@H]5[C@H](O)[C@@H](O)[C@@H](O[C@H]6[C@H](O)[C@@H](O)[C@@H](O[C@H]7[C@H](O)[C@@H](O)[C@@H](O[C@H]1[C@H](O)[C@H]2O)O[C@@H]7CO)O[C@@H]6CO)O[C@@H]5CO)O[C@@H]4CO)O[C@@H]3CO [Form 3 (Example 5.3)]
[3]; [6]
  KF water content: 2.5 % w/w
[3]; [7]
  KF water content: 2.1 % w/w
[3]; 5° C., 1 month, double bagged in HDPE bottle
  KF water content: 4.2 % w/w
[3]; 5° C., 3 months, double bagged in HDPE bottle
  KF water content: 4.6 % w/w
[3]; 5° C., 6 months, double bagged in HDPE bottle
  KF water content: 4.7 % w/w
[3]; 5° C., Initial, double bagged in HDPE bottle
  KF water content: 2.3 % w/w
[3]; [8]
  KF water content: 3.2 % w/w
[3]; 25° C./60% RH, 1 month, double bagged in HDPE bottle
  KF water content: 6.1 % w/w
[3]; 25° C./60% RH, 3 months, double bagged in HDPE bottle
  KF water content: 5.7 % w/w
[3]; 25° C./60% RH, 6 months, double bagged in HDPE bottle
  KF water content: 6.1 % w/w
[3]; 25° C./60% RH, Initial, double bagged in HDPE bottle
  KF water content: 2.3 % w/w
[3]; 40° C./75% RH, 1 month, double bagged in HDPE bottle
  KF water content: 6.2 % w/w
[3]; 40° C./75% RH, 3 months, double bagged in HDPE bottle
  KF water content: 6.2 % w/w
[3]; 40° C./75% RH, Initial, double bagged in HDPE bottle
  KF water content: 2.3 % w/w
[3]; [9]
  KF water content: 2.4 % w/w
[4]; 5° C. stability, 8 wk
  Related substances, HPLC RRT 0.56 (Dimer): <0.05 % Area
  Related substances, HPLC RRT 0.60 (α-CD adduct): 1.19 % Area
  Related substances, HPLC RRT 1.14 (Mixed dimer): 0.05 % Area
  Related substances, HPLC RRT 1.21 (Erysolin): 0.28 % Area
  Related substances, HPLC RRT 1.58 (Thioether dimer): 0.07 % Area
  Related substances, Total Impurities: 1.98 % Area
[4]; 5° C. stability, Initial
  Related substances, HPLC RRT 0.56 (Dimer): <0.05 % Area
  Related substances, HPLC RRT 0.60 (α-CD adduct): 0.95 % Area
  Related substances, HPLC RRT 1.14 (Mixed dimer): 0.05 % Area
  Related substances, HPLC RRT 1.21 (Erysolin): 0.29 % Area
  Related substances, HPLC RRT 1.58 (Thioether dimer): 0.08 % Area
  Related substances, Total Impurities: 1.71 % Area
[4]; 25° C./60% RH stability, 8 wk
  Related substances, HPLC RRT 0.56 (Dimer): 0.26 % Area
  Related substances, HPLC RRT 0.60 (α-CD adduct): 3.21 % Area
  Related substances, HPLC RRT 1.14 (Mixed dimer): 0.05 % Area
  Related substances, HPLC RRT 1.21 (Erysolin): 0.27 % Area
  Related substances, HPLC RRT 1.58 (Thioether dimer): 0.07 % Area
  Related substances, Total Impurities: 4.57 % Area
[4]; [10]
  Related substances, HPLC RRT 0.56 (Dimer): <0.05 % Area
  Related substances, HPLC RRT 0.60 (α-CD adduct): 0.95 % Area
  Related substances, HPLC RRT 1.14 (Mixed dimer): 0.05 % Area
  Related substances, HPLC RRT 1.21 (Erysolin): 0.29 % Area
  Related substances, HPLC RRT 1.58 (Thioether dimer): 0.08 % Area
  Related substances, Total Impurities: 1.71 % Area
[5]; 1 month, 40° C./75% RH
  XRPD main peaks of stability sample: concordant with Form 3
[5]; 3 month, 25° C./60% RH
  XRPD main peaks of stability sample: concordant with Form 3

## C[S+]([O-])CCCCN=C=S.OC[C@H]1O[C@@H]2O[C@H]3[C@H](O)[C@@H](O)[C@@H](O[C@H]4[C@H](O)[C@@H](O)[C@@H](O[C@H]5[C@H](O)[C@@H](O)[C@@H](O[C@H]6[C@H](O)[C@@H](O)[C@@H](O[C@H]7[C@H](O)[C@@H](O)[C@@H](O[C@H]1[C@H](O)[C@H]2O)O[C@@H]7CO)O[C@@H]6CO)O[C@@H]5CO)O[C@@H]4CO)O[C@@H]3CO [Form 3 (Example 5B-trial 5)]
[3]; [6]
  KF water content: 3.3 % w/w
[3]; [7]
  KF water content: 2.6 % w/w
[3]; [8]
  KF water content: 3.6 % w/w
[3]; [9]
  KF water content: 2.9 % w/w
[4]; 5° C. stability, 8 wk
  Related substances, HPLC RRT 0.56 (Dimer): 0.15 % Area
  Related substances, HPLC RRT 0.60 (α-CD adduct): 0.42 % Area
  Related substances, HPLC RRT 1.14 (Mixed dimer): 0.05 % Area
  Related substances, HPLC RRT 1.21 (Erysolin): 0.29 % Area
  Related substances, HPLC RRT 1.58 (Thioether dimer): <0.05 % Area
  Related substances, Total Impurities: 1.30 % Area
[4]; 5° C. stability, Initial
  Related substances, HPLC RRT 0.56 (Dimer): 0.15 % Area
  Related substances, HPLC RRT 0.60 (α-CD adduct): 0.36 % Area
  Related substances, HPLC RRT 1.14 (Mixed dimer): <0.05 % Area
  Related substances, HPLC RRT 1.21 (Erysolin): 0.28 % Area
  Related substances, HPLC RRT 1.58 (Thioether dimer): <0.05 % Area
  Related substances, Total Impurities: 1.16 % Area
[4]; 25° C./60% RH stability, 8 wk
  Related substances, HPLC RRT 0.56 (Dimer): 0.28 % Area
  Related substances, HPLC RRT 0.60 (α-CD adduct): 1.15 % Area
  Related substances, HPLC RRT 1.14 (Mixed dimer): 0.06 % Area
  Related substances, HPLC RRT 1.21 (Erysolin): 0.28 % Area
  Related substances, HPLC RRT 1.58 (Thioether dimer): <0.05 % Area
  Related substances, Total Impurities: 2.35 % Area
[4]; [10]
  Related substances, HPLC RRT 0.56 (Dimer): 0.15 % Area
  Related substances, HPLC RRT 0.60 (α-CD adduct): 0.36 % Area
  Related substances, HPLC RRT 1.14 (Mixed dimer): <0.05 % Area
  Related substances, HPLC RRT 1.21 (Erysolin): 0.28 % Area
  Related substances, HPLC RRT 1.58 (Thioether dimer): <0.05 % Area
  Related substances, Total Impurities: 1.16 % Area
